# In patent publication US11147884B2, “Inhibitors of NHE-mediated antiport” (Ardelyx, Inc., priority 2017, dated 2021):
# Columns and labels:
# [1] = test system: human ileum stem cells grown as monolayers; test: Intracellular pH (BCECF-AM) in human ileum monolayers; type: cell-based; details: human ileum monolayer
# [2] = biological target: T1, NHE3 (Homo sapiens, UniProt P48764); test: NHE3 activity in enterocytes by intracellular pH recovery following acid loading; type: cell-based
# T1 construct: the increase in NHE3 expression after differentiation; endogenous in cells; host or cells: enterocytes (differentiated human ileum organoid monolayer cultures)
# T1 sequence (P48764 26-834): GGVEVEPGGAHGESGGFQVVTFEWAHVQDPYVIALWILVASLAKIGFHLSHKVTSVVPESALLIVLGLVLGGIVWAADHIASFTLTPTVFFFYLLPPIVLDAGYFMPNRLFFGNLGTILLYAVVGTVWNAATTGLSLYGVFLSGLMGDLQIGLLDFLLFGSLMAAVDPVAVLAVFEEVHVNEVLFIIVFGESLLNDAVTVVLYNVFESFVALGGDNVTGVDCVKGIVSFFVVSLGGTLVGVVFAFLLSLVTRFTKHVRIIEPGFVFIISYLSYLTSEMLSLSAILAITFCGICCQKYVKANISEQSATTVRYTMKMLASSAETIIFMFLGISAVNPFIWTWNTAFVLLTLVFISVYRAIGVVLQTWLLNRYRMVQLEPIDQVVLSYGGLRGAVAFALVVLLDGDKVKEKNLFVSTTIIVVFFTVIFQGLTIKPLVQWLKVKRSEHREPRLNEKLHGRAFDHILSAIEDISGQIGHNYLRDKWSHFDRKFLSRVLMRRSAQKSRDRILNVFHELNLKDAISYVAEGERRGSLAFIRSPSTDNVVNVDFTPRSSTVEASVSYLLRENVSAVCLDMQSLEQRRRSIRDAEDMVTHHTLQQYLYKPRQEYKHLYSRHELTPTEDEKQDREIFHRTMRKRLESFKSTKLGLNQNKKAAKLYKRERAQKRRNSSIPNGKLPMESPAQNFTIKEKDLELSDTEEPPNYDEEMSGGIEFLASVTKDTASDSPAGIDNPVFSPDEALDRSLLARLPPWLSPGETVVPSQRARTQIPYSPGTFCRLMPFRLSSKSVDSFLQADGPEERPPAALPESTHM
# Method: Known NHE3 inhibitor Tenapanor, as well as non NHE3 inhibitors nigericin, BAM15, FCCP, or DMSO control, were diluted into Na-containing buffer and added to the apical compartment of the Transwell. Fluorescent readings were acquired every 5 minutes for a period of 30 minutes on a Flexstation microplate reader at dual excitation wavelengths of 495 nm and 439 nm and emission wavelength of 538 nm (Molecular Devices). The fluorescent ratio for pH indication was calculated from ratio of the two excitation wavelengths (495/439 nm).
# [3] = test system: human ileum monolayer culture; test: Transepithelial electrical resistance (TEER) in human ileum organoid monolayer cultures; type: cell-based; details: for TEER compared with control: 3 μM, vs DMSO (FIG. 1D)
# Method: Each human ileum monolayer culture well was washed twice with fresh SBM on the apical side on day 6 before compound dosing. All compound stocks were 10 mM dissolved in DMSO. Each compound stock was individually mixed with fresh SBM to reach final compound concentration and dosed only on the apical side of the monolayer (total volume 200 μl). DMSO at the equivalent concentration was used as the vehicle control. Duplicate wells were dosed for each compound. Transepithelial electrical resistance (TEER) was used as a quantitative technique to measure of tight junction permeability. TEER values were recorded using a volt/ohm meter (MERS00002, Millipore) before and after dosing for all wells. Each of the duplicate TEER values following treatment were corrected for the individual well baseline TEER. Baseline corrected TEER for each example compound was compared to the average of the DMSO wells and expressed as a percent TEER of vehicle control. Intracellular pH was measured in human ileum stem cells grown as monolayers on 96 well Transwell plates cells incubated with 10 μM of pH sensitive dye BCECF-AM (Life Technologies, cat# B1150) for 30 min at 37° C., 5% CO2 in Na-containing buffer (120 mM NaCl, 10 mM HEPES, 10 mM glucose, 5 mM KCl, 2 mM CaCl2, 1 mM MgCl2, pH 7.4). After 30 min the dye was aspirated and cells were washed twice with Na-containing buffer.
# Fluorescent readings were acquired every 5 minutes for a period of 30 minutes on a Flexstation microplate reader at dual excitation wavelengths of 495 nm and 439 nm and emission wavelength of 538 nm (Molecular Devices). The fluorescent ratio for pH indication was calculated from ratio of the two excitation wavelengths (495/439 nm).
# [4] = test system: mice; test: Gastrointestinal transit (Evans Blue dye front) in opioid induced constipation model; type: in vivo; details: oral vehicle, subcutaneous loperamide (0.3 to 6 mg/kg); 30-minute period; vehicle/vehicle approximately 70%
# Method: Gastrointestinal transit is measured in mice treated with the peripherally acting μ-opioid agonist loperamide to assess the ability of selected example compounds to restore gastrointestinal motility in a model of opioid induced constipation. Approximately eight-week old, female, CD 1 rats are purchased from Envigo (Livermore, Calif.), are housed 4 per cage and acclimated for at least 48 hours before study initiation. Animals are fed standard laboratory rodent chow Harlan Teklad Global 2018 (Maddison, Wis.). […] 30 minutes later, animals are euthanized by carbon dioxide inhalation, and the length from the pylorus to cecum (whole length of the small intestine) and the length from the pylorus to the Evans Blue dye front are measured and recorded. For an individual animal, the length travelled by the Evans Blue dye front is divided by the length of the whole small intestine, measured from the pylorus to the cecum, and multiplied by 100, to provide the distance of the small intestine travelled by the dye as a percentage. […] The effect of example compounds on GIT motility in the presence of loperamide is calculated as the ability to restore vehicle/vehicle transit distance from the vehicle/loperamide transit, expressed as a percentage.
Molecule,"intracellular pH compared with control ([1]; 3 μM, vs DMSO (FIG. 1C))",inhibition of NHE3 activity in enterocytes [2],TEER compared with control [3],also measured
Fc1ccccc1Nc1nc2nonc2nc1Nc1ccccc1F [BAM15],decrease intracellular pH,"neither nigericin, BAM15 nor FCCP inhibited NHE3 activity",increased TEER compared with control,–
CN(C)C(=O)C(CCN1CCC(O)(c2ccc(Cl)cc2)CC1)(c1ccccc1)c1ccccc1 [loperamide],–,–,–,length of the small intestine travelled by Evans Blue dye front [4]: ~25%
CO[C@@H]1C[C@@H](C[C@H]2CC[C@H](C)[C@H]([C@@H](C)C(=O)O)O2)O[C@]2(O[C@](C)([C@H]3CC[C@@](C)([C@@H]4O[C@@H]([C@H]5O[C@@](O)(CO)[C@H](C)C[C@@H]5C)C[C@@H]4C)O3)C[C@H]2C)[C@@H]1C [nigericin],–,"neither nigericin, BAM15 nor FCCP inhibited NHE3 activity",–,"intracellular pH compared with control ([1]; apical dosing, vs DMSO (FIG. 1A)): reduced intracellular pH compared with control"
CN1Cc2c(Cl)cc(Cl)cc2[C@H](c2cccc(S(=O)(=O)NCCOCCOCCNC(=O)NCCCCNC(=O)NCCOCCOCCNS(=O)(=O)c3cccc([C@@H]4CN(C)Cc5c(Cl)cc(Cl)cc54)c3)c2)C1 [tenapanor],–,–,–,"TEER relative to control ([3]; apical dosing, vs DMSO (FIG. 1B)): increase in TEER relative to control"
FCCP,decrease intracellular pH,–,increased TEER compared with control,–
